In patent US20120264685A1 (priority 2009, published 2012):
Where a SMILES comes first, the peptide text is derived from it. [ ]: non-standard residue; d: D form. ξ: configuration not given here. ξαMeBip(2'-Et,4'-OMe) = CCc1cc(OC)ccc1-c1ccc(CC(C)(N)C(=O)O)cc1; ξBip(2'-Et-4'-OMe) = CCc1cc(OC)ccc1-c1ccc(CC(N)C(=O)O)cc1; ξαMePhe(2,6-F2) = CC(N)(Cc1c(F)cccc1F)C(=O)O; ξαMe(hhPhe) = CC(N)(CCCc1ccccc1)C(=O)O; ξαMePhe(2-F) = CC(N)(Cc1ccccc1F)C(=O)O; ξhhPhe = NC(CCCc1ccccc1)C(=O)O; ξαMeD = CC(N)(CC(=O)O)C(=O)O; ξαMeP = CC1(C(=O)O)CCCN1; Ac5c = NC1(C(=O)O)CCCC1; ξαMeS = CC(N)(CO)C(=O)O

System: RIN5F (Rat Insulinoma) cells
Assay: In vitro glucose-dependent insulin secretion (RIN5F cell assay)
Type: cell-based
Conditions: 16.7-mM glucose load, n = 3, mean ± S.D.
Method: RIN5F (Rat Insulinoma) cells were cultured in RPMI 1640 medium supplemented with sodium pyruvate (1 mM) HEPES and Glucose (4.5 g/L) in a humidified incubator (5% CO2), at 37° C. After trypsinization, RIN5F cells were seeded at a concentration of 0.2×10^6 cells per well, in 12 well plates. The cells were grown overnight to 80% confluence and insulin secretion experiments were performed as follows (Montrose-Rafizadeh C., et al., Mol. Cell. Endo. 1997, 130, 109.; Wang, X., et al., Endocrinology 2001, 5, 1820).
The cells were washed once with PBS solution followed by 40 min. incubation in fresh Krebs-Ringer Balanced Buffer containing NaCl (115 mmol/L), KCl (4.7 mmol/L), CaCl2 (1.28 mmol/L), MgSO4.7H2O (1.2 mmol/L), KH2PO4 (1.2 mmol/L), NaHCO3 (10 mmol/L) and HEPES (25 mmol/L), containing Glucose (1.1 mM) and B.S.A (0.5%), pH 7.4. The buffer was replaced after 40 min. and the cells were incubated (37° C.) with the test peptidomimetics, at different concentration, for 30 min., both in the presence (16.7 mM) and absence (0 mM) of glucose load. The supernatant was collected and the insulin amount was measured by ultra sensitive Rat insulin ELISA kit (Crystal Chem, IL). The protein was estimated in the supernatant using Bicinchoninic Acid kit, according to the manufacturer's protocol (Sigma Aldrich, MO). The total insulin content obtained in Pico-gram (pg) was divided with the total protein (μg) in order to normalize for differences in cell density between wells.

Row | Structure (SMILES) | Insulin secretion (0.1 nM test compd.) [pg/µg/h] | Insulin secretion (1 nM test compd.) [pg/µg/h] | Insulin secretion (10 nM test compd.) [pg/µg/h]
1 | CCc1cc(OC)ccc1-c1ccc(CC(C)(NC(=O)[C@H](CC(=O)O)NC(=O)[C@H](CO)NC(=O)[C@@H](NC(=O)[C@H](Cc2ccccc2)NC(=O)[C@@H](NC(=O)CNC(=O)[C@H](CCC(N)=O)NC(=O)[C@H](CO)NC(=O)[C@H](Cc2c[nH]cn2)NC(=O)[C@@H](N)C(C)C)[C@@H](C)O)[C@@H](C)O)C(=O)NC(CCCc2ccccc2)C(N)=O)cc1 (stereo partly drawn) [compound 5] (H-VHSQGTFTSD[ξαMeBip(2'-Et,4'-OMe)][ξhhPhe]-NH2) | 12.1 ± 0.51 | 14.1 ± 0.19 | 28.1 ± 0.29
2 | CCc1cc(OC)ccc1-c1ccc(CC(NC(=O)[C@H](CC(=O)O)NC(=O)[C@H](CO)NC(=O)[C@@H](NC(=O)[C@H](Cc2ccccc2)NC(=O)[C@@H](NC(=O)CNC(=O)[C@H](CCC(N)=O)NC(=O)C2(NC(=O)[C@H](Cc3c[nH]cn3)NC(=O)[C@@H](N)C(C)C)CCCC2)[C@@H](C)O)[C@@H](C)O)C(=O)NC(C)(CCCc2ccccc2)C(N)=O)cc1 (stereo partly drawn) [compound 85] (H-VH[Ac5c]QGTFTSD[ξBip(2'-Et-4'-OMe)][ξαMe(hhPhe)]-NH2) | 12.1 ± 0.52 | 14.1 ± 0.16 | 28.0 ± 0.36
3 | CCc1cc(OC)ccc1-c1ccc(CC(C)(NC(=O)[C@H](CC(=O)O)NC(=O)[C@H](CO)NC(=O)[C@@H](NC(=O)C(C)(Cc2c(F)cccc2F)NC(=O)[C@@H](NC(=O)CNC(=O)[C@H](CCC(N)=O)NC(=O)[C@H](CO)NC(=O)[C@H](Cc2c[nH]cn2)NC(=O)[C@@H](N)C(C)C)[C@@H](C)O)[C@@H](C)O)C(=O)NC(CCCc2ccccc2)C(N)=O)cc1 (stereo partly drawn) [compound 25] (H-VHSQGT[ξαMePhe(2,6-F2)]TSD[ξαMeBip(2'-Et,4'-OMe)][ξhhPhe]-NH2) | 12.6 ± 0.20 | 15.9 ± 0.31 | 28.4 ± 0.11
4 | CCc1cc(OC)ccc1-c1ccc(CC(C)(NC(=O)C(C)(CC(=O)O)NC(=O)[C@H](CO)NC(=O)[C@@H](NC(=O)C(C)(Cc2ccccc2F)NC(=O)[C@@H](NC(=O)CNC(=O)[C@H](CCC(N)=O)NC(=O)[C@H](C)NC(=O)[C@H](Cc2c[nH]cn2)NC(=O)[C@@H](N)C(C)C)[C@@H](C)O)[C@@H](C)O)C(=O)NC(CCCc2ccccc2)C(N)=O)cc1 (stereo partly drawn) [compound 66] (H-VHAQGT[ξαMePhe(2-F)]TS[ξαMeD][ξαMeBip(2'-Et,4'-OMe)][ξhhPhe]-NH2) | 16.5 ± 0.12 | 22.7 ± 0.17 | 36.5 ± 0.05
5 | CCc1cc(OC)ccc1-c1ccc(CC(C)(NC(=O)[C@H](CC(=O)O)NC(=O)[C@H](CO)NC(=O)[C@@H](NC(=O)[C@H](Cc2ccccc2)NC(=O)[C@@H](NC(=O)CNC(=O)[C@H](CCC(=O)O)NC(=O)C2(NC(=O)[C@H](Cc3c[nH]cn3)NC(=O)[C@@H](N)C(C)C)CCCC2)[C@@H](C)O)[C@@H](C)O)C(=O)NC(CCCc2ccccc2)C(N)=O)cc1 (stereo partly drawn) [compound 15] (H-VH[Ac5c]EGTFTSD[ξαMeBip(2'-Et,4'-OMe)][ξhhPhe]-NH2) | 15.3 ± 0.19 | 21.2 ± 0.11 | 35.5 ± 0.19
6 | CCc1cc(OC)ccc1-c1ccc(CC(C)(NC(=O)[C@H](CC(=O)O)NC(=O)[C@H](CO)NC(=O)[C@@H](NC(=O)C(C)(Cc2ccccc2F)NC(=O)[C@@H](NC(=O)CNC(=O)[C@H](CCC(N)=O)NC(=O)C2(C)CCCN2C(=O)[C@H](Cc2c[nH]cn2)NC(=O)[C@@H](N)C(C)C)[C@@H](C)O)[C@@H](C)O)C(=O)NC(CCCc2ccccc2)C(N)=O)cc1 (stereo partly drawn) [compound 20] (H-VH[ξαMeP]QGT[ξαMePhe(2-F)]TSD[ξαMeBip(2'-Et,4'-OMe)][ξhhPhe]-NH2) | 11.1 ± 0.12 | 13.1 ± 0.13 | 19.0 ± 0.16
7 | CCc1cc(OC)ccc1-c1ccc(CC(C)(NC(=O)[C@H](CC(=O)O)NC(=O)[C@H](CO)NC(=O)[C@@H](NC(=O)[C@H](Cc2ccccc2)NC(=O)[C@@H](NC(=O)CNC(=O)[C@H](CCC(N)=O)NC(=O)C2(C)CCCN2C(=O)[C@H](Cc2c[nH]cn2)NC(=O)[C@@H](N)C(C)C)[C@@H](C)O)[C@@H](C)O)C(=O)NC(CCCc2ccccc2)C(N)=O)cc1 (stereo partly drawn) [compound 8] (H-VH[ξαMeP]QGTFTSD[ξαMeBip(2'-Et,4'-OMe)][ξhhPhe]-NH2) | 12.6 ± 0.25 | 15.3 ± 0.31 | 29.7 ± 0.48
8 | CCc1cc(OC)ccc1-c1ccc(CC(C)(NC(=O)[C@H](CC(=O)O)NC(=O)C(C)(CO)NC(=O)[C@@H](NC(=O)[C@H](Cc2ccccc2)NC(=O)[C@@H](NC(=O)CNC(=O)[C@H](CCC(N)=O)NC(=O)C2(C)CCCN2C(=O)[C@H](Cc2c[nH]cn2)NC(=O)[C@@H](N)C(C)C)[C@@H](C)O)[C@@H](C)O)C(=O)NC(C)(CCCc2ccccc2)C(N)=O)cc1 (stereo partly drawn) [compound 160] (H-VH[ξαMeP]QGTFT[ξαMeS]D[ξαMeBip(2'-Et,4'-OMe)][ξαMe(hhPhe)]-NH2) | 16.8 ± 0.20 | 22.7 ± 0.29 | 36.6 ± 0.31
9 | CCc1cc(OC)ccc1-c1ccc(CC(C)(NC(=O)[C@H](CC(=O)O)NC(=O)[C@H](CO)NC(=O)[C@@H](NC(=O)[C@H](Cc2ccccc2)NC(=O)[C@@H](NC(=O)CNC(=O)[C@H](CCC(=O)O)NC(=O)[C@H](C)NC(=O)[C@H](Cc2c[nH]cn2)NC(=O)[C@@H](NC(=O)[C@@H](N)C(C)C)C(C)C)[C@@H](C)O)[C@@H](C)O)C(=O)NC(CCCc2ccccc2)C(N)=O)cc1 (stereo partly drawn) [compound 210] (H-VVHAEGTFTSD[ξαMeBip(2'-Et,4'-OMe)][ξhhPhe]-NH2) | 16.3 ± 0.15 | 22.4 ± 0.21 | 36.2 ± 0.11
10 | CCc1cc(OC)ccc1-c1ccc(CC(C)(NC(=O)C(C)(CC(=O)O)NC(=O)[C@H](CO)NC(=O)[C@@H](NC(=O)C(C)(Cc2c(F)cccc2F)NC(=O)[C@@H](NC(=O)CNC(=O)[C@H](CCC(=O)O)NC(=O)[C@H](C)NC(=O)[C@H](Cc2c[nH]cn2)NC(=O)[C@@H](N)C(C)C)[C@@H](C)O)[C@@H](C)O)C(=O)NC(CCCc2ccccc2)C(N)=O)cc1 (stereo partly drawn) [compound 78] (H-VHAEGT[ξαMePhe(2,6-F2)]TS[ξαMeD][ξαMeBip(2'-Et,4'-OMe)][ξhhPhe]-NH2) | 16.3 ± 0.15 | 22.4 ± 0.21 | 36.2 ± 0.11
